Assay results published in ChEMBL document CHEMBL3046194, “Synthesis and antitumor activity of novel 4-aminoquinoline derivatives” (Med Chem Res, 2013).
The source made the active and inactive calls. The rule behind the calls is not given here.

Legend:
[1] = test system: HepG2; experiment: Antitumor activity against Homo sapiens (human) HepG2 cells assessed as inhibition of cell viability after 72 hr by MTT assay; assay type: functional, cell-based; conditions: HepG2, 72 h
[2] = test system: HEK293; experiment: Cytotoxicity against Homo sapiens (human) HEK293 cells assessed as inhibition of cell viability after 72 hr by MTT assay; assay type: cell-based; conditions: HEK293, 72 h
[3] = test system: DU-145; experiment: Antitumor activity against Homo sapiens (human) DU145 cells assessed as inhibition of cell viability after 72 hr by MTT assay; assay type: functional, cell-based; conditions: DU-145, 72 h
[4] = Antitumor activity against Homo sapiens (human) LN229 cells assessed as inhibition of cell viability after 72 hr by MTT assay; assay type: functional, cell-based; conditions: LN-229, 72 h
[5] = test system: HCT-116; experiment: Antitumor activity against Homo sapiens (human) HCT116 cells assessed as inhibition of cell viability after 72 hr by MTT assay; assay type: functional, cell-based; conditions: HCT-116, 72 h
[6] = test system: A549; experiment: Antitumor activity against Homo sapiens (human) A549 cells assessed as inhibition of cell viability after 72 hr by MTT assay; assay type: functional, cell-based; conditions: A549, 72 h
[7] = test system: HCT-116; experiment: Decrease in VEGF protein expression in Homo sapiens (human) HCT116 cells at 2.5 to 10 uM after 48 hr by westerrn blot analysis; assay type: functional, cell-based

| Compound | IC50 [1] [µM] | IC50 [2] [µM] | IC50 [3] [µM] | IC50 [4] [µM] | IC50 [5] [µM] | IC50 [6] [µM] | inhibition [7] |
| --- | --- | --- | --- | --- | --- | --- | --- |
| COc1cc(OC)c2c(Nc3ccccc3)cc(-c3ccccc3)nc2c1 | 36.4 | 13.2 | 22.2 | 5.9 | 4.28 | > 100 |  |
| COc1cc(OC)c2c(NCc3ccccc3)cc(-c3ccccc3)nc2c1 | 10.9 |  | 10.1 | 7.15 | 12 | 12.8 |  |
| COc1cc(OC)c2c(-n3ccnc3)cc(-c3ccccc3)nc2c1 | 58.6 |  | > 100 | 55.3 | 42.4 | > 100 |  |
| COc1cc(OC)c2c(N3CCCCC3)cc(-c3ccccc3)nc2c1 | > 100 | 68.2 | > 100 | 66 | 32 | > 100 |  |
| COc1cc(OC)c2c(N3CCOCC3)cc(-c3ccccc3)nc2c1 | > 100 | > 100 | > 100 | > 100 | 28.1 | > 100 |  |
| COc1cc(OC)c2c(NC3CCCCC3)cc(-c3ccccc3)nc2c1 | 3.16 |  | 5.47 | 6.08 | 3.82 | 6.59 |  |
| CCCNc1cc(-c2ccccc2)nc2cc(OC)cc(OC)c12 | 5.21 | 2 | 9.77 | 1.82 | 0.97 | 13.1 | Active |
| CCCCNc1cc(-c2ccccc2)nc2cc(OC)cc(OC)c12 | 4.46 | 3.23 | 4.63 | 3.92 | 3.05 | 19.6 |  |
| COc1cc(OC)c2c(N3CCN(C)CC3)cc(-c3ccccc3)nc2c1 | 22.6 | 3.66 | 16.4 | 1.75 | 7.43 | > 100 |  |
| O=c1[nH]cc(F)c(=O)[nH]1 [FLUOROURACIL] | 19.2 |  | 2.95 |  | 1.93 | > 100 |  |
